The results in this text go back to patent US10975068B2, “6-aminopyridin-3-yl thiazoles as modulators of RORγT” (Janssen Pharmaceutica NV, priority 2016, dated 2021).

Read-outs that look alike come from different tables or passages of the source.

Test [1] deals with human RORγt ligand binding domain (RORγt LBD) (Homo sapiens (Human), UniProt P51449). In words: RORγt ThermoFluor® assay (thermal shift binding). The conditions noted are these: read-out: ThermoFluor® Assay, Kd. An outline of the steps: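 Binding was inferred from thermal stabilisation (ΔTm) of the E. coli-expressed RORγt LBD (0.065 mg/mL), monitored by 1,8-ANS (60 μM) emission at 500 nm during a 1 °C/min ramp. Buffer was Hepes 100 mM pH 7.0 with NaCl, GSH and Tween-20.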
(DSF heats the sample and reads unfolding from a dye or from intrinsic fluorescence.)

The target of another test is full-length human RORγt (Homo sapiens (Human), UniProt P51449). In words: RORγt (full-length human) reporter assay, Conditions B or C. The following applies: for inhibition at 3 µM: at 3 μM compound concentration; for RORγt (FL) Reporter Assay B or C, % inhibition (value marked *): marked *: footnote not given. It counts as cell-based. The method in brief:
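Readout is dual luciferase: firefly (GAL4-driven) normalized to DMSO-only and saturating-reference controls, then to CMV-Renilla. Full-length human RORγt fused to GAL4-DBD was transiently expressed in HEK293T; compound exposure ran overnight (16-20 h) starting 4-6 h after transfection, final FBS 1.3%, DMSO 0.1%.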
(In a reporter assay the amount or activity of a reporter protein is the signal.)

[2] abbreviates: read-out: RORγt (FL) Reporter Assay B or C, % inhibition.
Setting [3] is: Conditions B or C, read-out: RORγt (FL) Reporter Assay B or C, IC50.
The mark [4] stands for this setting: read-out: RORγt (FL) Reporter Assay B or C, IC50.

full-length human RORγt, sequence (P51449 other isoform, or with tags, fused parts or gaps): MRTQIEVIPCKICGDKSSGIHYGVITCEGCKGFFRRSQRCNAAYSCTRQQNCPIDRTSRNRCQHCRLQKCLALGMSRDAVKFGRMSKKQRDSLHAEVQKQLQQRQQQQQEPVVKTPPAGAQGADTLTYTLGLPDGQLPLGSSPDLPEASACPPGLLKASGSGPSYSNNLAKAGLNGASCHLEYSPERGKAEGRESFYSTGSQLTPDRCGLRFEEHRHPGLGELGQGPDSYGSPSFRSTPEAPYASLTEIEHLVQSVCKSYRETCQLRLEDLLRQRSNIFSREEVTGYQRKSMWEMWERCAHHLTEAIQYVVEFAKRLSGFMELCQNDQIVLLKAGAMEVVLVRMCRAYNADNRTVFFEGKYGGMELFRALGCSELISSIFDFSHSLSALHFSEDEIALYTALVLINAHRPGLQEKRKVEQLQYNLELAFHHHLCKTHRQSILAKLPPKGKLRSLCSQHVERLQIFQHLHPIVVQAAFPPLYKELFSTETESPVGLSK
human RORγt ligand binding domain (RORγt LBD), sequence (P51449 other isoform, or with tags, fused parts or gaps): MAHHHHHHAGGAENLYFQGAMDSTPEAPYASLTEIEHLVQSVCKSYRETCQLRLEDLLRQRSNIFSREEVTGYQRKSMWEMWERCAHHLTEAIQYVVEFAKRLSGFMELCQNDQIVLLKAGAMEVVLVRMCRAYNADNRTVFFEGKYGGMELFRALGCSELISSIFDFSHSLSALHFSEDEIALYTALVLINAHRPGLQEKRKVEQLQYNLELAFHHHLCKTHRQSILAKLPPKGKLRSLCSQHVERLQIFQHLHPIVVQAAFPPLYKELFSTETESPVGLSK

In general, Kd refers to the concentration at which binding is half-saturated. The term IC50 denotes the concentration at which inhibition is half-maximal. As a reminder, the inhibition is the drop in the measured response relative to a control, in per cent. As for `O=C(N[C@H]1CC[C@H](O)C1)c1nc(C(=O)N2C3CCC2CC3)c(-c2cnc(N[C@@H](C3CC3)C(F)(F)F)cc2C(F)F)s1` [Example 441, 4-((1s,4s)-7-Azabicyclo[2.2.1]heptane-7-carbonyl)-5-[6-[[(1S)-1-cyclopropyl-2,2,2-trifluoro-ethyl]amino]-4-(difluoromethyl)-3-pyridyl]-N-[(1S,3S)-3-hydroxycyclopentyl]thiazole-2-carboxamide], in test [1], the dissociation constant (Kd) worked out at 0.00047 µM. The same compound came in with a 50% inhibitory concentration (IC50) at full-length human RORγt (RORγt (FL) Reporter Assay B or C, IC50) of 0.036 µM. The inhibition at 3 µM at full-length human RORγt (setting [2]) is 106%.
Regarding `CC[C@H](Nc1cc(C(F)F)c(-c2sc(C(=O)N[C@H]3CCC[C@@H]3O)nc2C(=O)N2C3CCC2CC3)cn1)C(F)(F)F` [Example 210, 4-((1s,4s)-7-Azabicyclo[2.2.1]heptane-7-carbonyl)-5-(4-(difluoromethyl)-6-(((1S)-1-(trifluoromethyl)propyl)amino)-3-pyridyl)-N-((1S,2S)-2-hydroxycyclopentyl)thiazole-2-carboxamide], the Kd in test [1] was determined as 0.00069 µM. The “RORγt (FL) Reporter Assay B or C, % inhibition (value marked *)” value (shortened to “RORγt … % inhibition (value marked *)”) on full-length human RORγt (Conditions B or C) was 105* %. Also, the half-inhibitory concentration (IC50) on full-length human RORγt (setting [3]) worked out at 0.021 µM.
Take `C[C@H]1CCCN1C(=O)c1nc(C(=O)NCC(C)(C)O)sc1-c1cnc(NC(C)(C)CC(F)(F)F)cc1C(F)F` [Example 296]: the equilibrium dissociation constant (Kd) in test [1] was determined as 0.0005 µM. In addition, on full-length human RORγt (setting [2]), the inhibition at 3 µM turned out to be 108%. Further, the IC50 on full-length human RORγt (setting [4]) stood at 0.0071 µM.
Regarding `C[C@H]1CCCN1C(=O)c1nc(C(=O)N2CC[C@@H](O)C2)sc1-c1cnc(NC(C)(C)C)cc1C(F)(F)F` [Example 349, [5-[6-(tert-Butylamino)-4-(trifluoromethyl)-3-pyridyl]-2-[(3R)-3-hydroxypyrrolidine-1-carbonyl]thiazol-4-yl]-[(2S)-2-methylpyrrolidin-1-yl]methanone], the dissociation constant Kd in test [1] came to 0.011 µM. For the same compound, the inhibition at 3 µM at full-length human RORγt (setting [2]) came out at 105%. Moreover, the IC50 on full-length human RORγt (setting [4]) worked out at 0.063 µM.
The like results for `CC[C@H](Nc1cc(C(F)F)c(-c2sc(C(=O)N[C@H](C)C(C)(C)O)nc2C(=O)N2CCC[C@@H]2C)cn1)C(F)(F)F` [Example 267, 5-[4-(Difluoromethyl)-6-[[(1S)-1-(trifluoromethyl)propyl]amino]-3-pyridyl]-N-[(1R)-2-hydroxy-1,2-dimethyl-propyl]-4-[(2S)-2-methylpyrrolidine-1-carbonyl]thiazole-2-carboxamide] were, in that order, 0.0033 µM, 102% and 0.047 µM.
As to `C[C@H]1CCCN1C(=O)c1nc(C(=O)NC[C@H](O)CO)sc1-c1cnc(NC(C)(C)C)cc1C(F)(F)F` [Example 363, 5-[6-(tert-Butylamino)-4-(trifluoromethyl)-3-pyridyl]-N-[(2S)-2,3-dihydroxypropyl]-4-[(2S)-2-methylpyrrolidine-1-carbonyl]thiazole-2-carboxamide], the dissociation constant Kd in test [1] worked out at 0.013 µM. In addition, the inhibition at 3 µM on full-length human RORγt (setting [2]) amounted to 111%. In addition, on full-length human RORγt (setting [4]), the IC50 came out at 0.13 µM.
Turning to `C[C@H]1CC(F)(F)CN1C(=O)c1nc(C(=O)NCC(C)(C)O)sc1-c1cnc(NC2(C)CCC2)cc1C(F)F` [Example 168], in test [1], the Kd was determined as 0.0018 µM. Further, at full-length human RORγt (Conditions B or C), the “RORγt … % inhibition (value marked *)” value is listed as 106* %. In addition, the IC50 at full-length human RORγt (setting [3]) was 0.2 µM.
The like results for `CC[C@@H](Nc1cc(C(F)(F)F)c(-c2sc(C(=O)NCC(C)(C)O)nc2C(=O)N2CCC[C@@H]2C)cn1)C1CC1` (relative stereo) [Example 129, 5-(6-(((R*)-1-Cyclopropylpropyl)amino)-4-(trifluoromethyl)pyridin-3-yl)-N-(2-hydroxy-2-methylpropyl)-4-((S)-2-methylpyrrolidine-1-carbonyl)thiazole-2-carboxamide] were, in that order, 0.003 µM, 104* % and 0.011 µM.
Take `C[C@H](Nc1cc(C(F)F)c(-c2sc(C(=O)N[C@H](C)C(C)(C)O)nc2C(=O)N2CC(F)(F)C[C@@H]2C)cn1)C(F)(F)F` [Example 198]: the dissociation constant (Kd) in test [1] amounted to 0.0025 µM. Also, at full-length human RORγt (Conditions B or C), the “RORγt … % inhibition (value marked *)” value is reported as 102* %. In addition, at full-length human RORγt (setting [3]), the concentration for half-maximal inhibition (IC50) is 0.053 µM.
For `C[C@H](Nc1cc(C(F)F)c(-c2sc(C(=O)NC3CCC3O)nc2C(=O)N2CCC[C@@H]2C)cn1)C(F)(F)F` (stereo partly drawn) [Example 386, 5-(4-(Difluoromethyl)-6-(((S)-1,1,1-trifluoropropan-2-yl)amino)pyridin-3-yl)-N-(trans-2-hydroxycyclobutyl)-4-((S)-2-methylpyrrolidine-1-carbonyl)thiazole-2-carboxamide], the dissociation constant (Kd) in test [1] was determined as 0.0094 µM. Moreover, the inhibition at 3 µM at full-length human RORγt (setting [2]) came out at 99%. Also, the half-maximal inhibitory concentration (IC50) at full-length human RORγt (setting [4]) came to 0.072 µM.
Regarding `CC[C@H](Nc1cc(C(F)F)c(-c2sc(C(=O)N[C@H]3C[C@H]3O)nc2C(=O)N2CCC[C@@H]2C)cn1)C(F)(F)F` (relative stereo) [Example 212, 5-(4-(Difluoromethyl)-6-(((S)-1,1,1-trifluorobutan-2-yl)amino)pyridin-3-yl)-N-((1S*,2R*)-2-hydroxycyclopropyl)-4-((S)-2-methylpyrrolidine-1-carbonyl)thiazole-2-carboxamide], the dissociation constant Kd in test [1] worked out at 0.013 µM. Moreover, the “RORγt … % inhibition (value marked *)” value at full-length human RORγt (Conditions B or C) is 104* %. Besides, the half-inhibitory concentration (IC50) at full-length human RORγt (setting [3]) came to 0.3 µM.
The like results for `CCC(C)(C)Nc1cc(C(F)(F)F)c(-c2sc(C(=O)NCC(C)(C)O)nc2C(=O)N2CC(F)(F)C[C@@H]2C)cn1` [Example 103, (S)-4-(4,4-Difluoro-2-methylpyrrolidine-1-carbonyl)-N-(2-hydroxy-2-methylpropyl)-5-(6-(tert-pentylamino)-4-(trifluoromethyl)pyridin-3-yl)thiazole-2-carboxamide] were, in that order, 0.00026 µM, 110* % and 0.0039 µM.
On to `C[C@H]1CCCN1C(=O)c1nc(C(=O)NCC(C)(C)O)sc1-c1cnc(N[C@@H](C2CC2)C(F)(F)F)cc1C(F)F` [Example 295], for which the equilibrium dissociation constant (Kd) in test [1] came to 0.0029 µM. Moreover, the inhibition at 3 µM on full-length human RORγt (setting [2]) worked out at 108%. In addition, the concentration for half-maximal inhibition (IC50) on full-length human RORγt (setting [4]) came out at 0.014 µM.
Taken in the same sequence, the figures for `C[C@H](NC(=O)c1nc(C(=O)N2CCC[C@@H]2C)c(-c2cnc(N[C@H](C)C(F)(F)F)cc2C(F)F)s1)C(C)(C)O` [Example 304, 5-(4-(Difluoromethyl)-6-(((R)-1,1,1-trifluoropropan-2-yl)amino)pyridin-3-yl)-N—((S)-3-hydroxy-3-methylbutan-2-yl)-4-((S)-2-methylpyrrolidine-1-carbonyl)thiazole-2-carboxamide] were 0.0051 µM, 102% and 0.092 µM.
As for `CC[C@H](Nc1cc(C(F)F)c(-c2sc(C(=O)N[C@H]3CC[C@H](O)C3)nc2C(=O)N2CC(F)(F)C[C@@H]2C)cn1)C(F)(F)F` [Example 416, 4-[(2S)-4,4-Difluoro-2-methyl-pyrrolidine-1-carbonyl]-5-[4-(difluoromethyl)-6-[[(1S)-1-(trifluoromethyl)propyl]amino]-3-pyridyl]-N-[(1S,3S)-3-hydroxycyclopentyl]thiazole-2-carboxamide], the Kd in test [1] stood at 0.00043 µM. At full-length human RORγt (at 1 μM compound concentration, read-out: RORγt (FL) Reporter Assay B or C, % inhibition), the inhibition at 1 µM was determined as 89%. At full-length human RORγt (setting [4]), the half-maximal inhibitory concentration (IC50) turned out to be 0.037 µM.
Take `CC[C@H](Nc1cc(C(F)F)c(-c2sc(C(=O)NC3CCCC3O)nc2C(=O)N2CCC[C@@H]2C)cn1)C(F)(F)F` (stereo partly drawn) [Example 252, 5-(4-(Difluoromethyl)-6-(((S)-1,1,1-trifluorobutan-2-yl)amino)pyridin-3-yl)-N-(cis-2-hydroxycyclopentyl)-4-((S)-2-methylpyrrolidine-1-carbonyl)thiazole-2-carboxamide]: the equilibrium dissociation constant (Kd) in test [1] was 0.0012 µM. The inhibition at 3 µM at full-length human RORγt (setting [2]) came to 106%. The IC50 at full-length human RORγt (setting [4]) was determined as 0.035 µM.
As to `C[C@H]1CCCN1C(=O)c1nc(C(=O)NCC(C)(C)O)sc1-c1cnc(NC2(C)CCC2)cc1C(F)F` [Example 173], the Kd in test [1] was found to be 0.0058 µM. The “RORγt … % inhibition (value marked *)” value at full-length human RORγt (Conditions B or C) was 95* %. On full-length human RORγt (setting [3]), the half-inhibitory concentration (IC50) turned out to be 0.055 µM.
In the case of `CC[C@H](Nc1cc(C(F)(F)F)c(-c2sc(C(=O)N[C@H]3COC[C@@H]3O)nc2C(=O)N2C3CCC2CC3)cn1)C(F)(F)F` [Example 156], the Kd in test [1] stood at 0.001 µM. The “RORγt … % inhibition (value marked *)” value on full-length human RORγt (Conditions B or C) is 102* %. Besides, the IC50 against full-length human RORγt (RORγt (FL) Reporter Assay B or C, IC50 (μM), Conditions B or C) amounted to 0.044 µM.
On to `CC[C@H](Nc1cc(C(F)F)c(-c2sc(C(=O)N[C@H]3CC[C@H](O)C3)nc2C(=O)N2C3CCC2CC3)cn1)C(F)(F)F` [Example 151], for which, in test [1], the dissociation constant Kd worked out at 0.00087 µM. Besides, the “RORγt … % inhibition (value marked *)” value on full-length human RORγt (Conditions B or C) was 104* %. At full-length human RORγt (setting [3]), the half-maximal inhibitory concentration (IC50) worked out at 0.015 µM.
Regarding `CC[C@H](Nc1cc(C(F)F)c(-c2sc(C(=O)N[C@@H]3COC[C@@H]3O)nc2C(=O)N2CCC[C@@H]2C)cn1)C(F)(F)F` (single isomer, unassigned) [Example 162, 5-(4-(Difluoromethyl)-6-(((S)-1,1,1-trifluorobutan-2-yl)amino)pyridin-3-yl)-N-((3R*,4R*)-4-hydroxytetrahydrofuran-3-yl)-4-((S)-2-methylpyrrolidine-1-carbonyl)thiazole-2-carboxamide], in test [1], the Kd was determined as 0.0095 µM. Moreover, the “RORγt … % inhibition (value marked *)” value on full-length human RORγt (Conditions B or C) is reported as 104* %. Besides, on full-length human RORγt (setting [3]), the IC50 worked out at 0.031 µM.
